Converted amounts (≈) assume the structure as drawn.
Tests used:
[1] = tested on: Mycobacterium tuberculosis; test: Antimycobacterial activity against Mycobacterium tuberculosis H37Rv after 30 days by agar microdilution method; type: functional
[2] = tested on: Mycobacterium tuberculosis; test: Antimycobacterial activity against Mycobacterium tuberculosis H37Ra after 5 days by two-fold dilution method; type: functional; conditions: 120 h

CCCCCCC#CC(c1ccc2c(c1)CCC(C)(C)O2)N1CCCCC1 (stereo unspecified) was tested, and the MIC [1] was 1.56 µg/mL (≈ 4.24 µM) and the MIC [2] was greater than 12.5 µg/mL.
In the case of CCOC(=O)[C@H]1N[C@@H](c2ccc(OC)cc2)[C@@H]([N+](=O)[O-])[C@@H]1c1ccc2c(c1)CCC(C)(C)O2 (relative stereo), the MIC [1] was greater than 12.5 µg/mL and the MIC [2] was greater than 12.5 µg/mL.
Work on CCCCCCC#CC(c1ccc2c(c1)CCC(C)(C)O2)N1CCOCC1 (stereo unspecified) yielded an MIC [2] greater than 12.5 µg/mL.
For CCOC(=O)[C@H]1N[C@@H](c2cccc([N+](=O)[O-])c2)[C@@H]([N+](=O)[O-])[C@@H]1c1ccc2c(c1)CCC(C)(C)O2 (relative stereo), the MIC [1] was 12.5 µg/mL (≈ 26.6 µM) and the MIC [2] was greater than 12.5 µg/mL.
In the case of CCCCCC#CC(c1ccc2c(c1)CCC(C)(C)O2)N1CCOCC1 (stereo unspecified), the MIC [1] was 3.12 µg/mL (≈ 8.78 µM) and the MIC [2] was greater than 12.5 µg/mL.
Work on CCOC(=O)[C@H]1N[C@@H](c2ccc([N+](=O)[O-])cc2)[C@@]2([N+](=O)[O-])C(c3ccc(OC)cc3)Oc3ccccc3[C@@H]12 (relative stereo) yielded an MIC [1] of 12.5 µg/mL (≈ 24.1 µM) and an MIC [2] greater than 12.5 µg/mL.
With CC1(C)CCc2cc(C(C#Cc3ccccc3)N3CCCCC3)ccc2O1 (stereo unspecified) the MIC [1] was 6.25 µg/mL (≈ 17.4 µM) and the MIC [2] was greater than 12.5 µg/mL.
CCOC(=O)[C@H]1N[C@@H](c2ccc(OC)cc2)[C@@]2([N+](=O)[O-])C(c3ccc(OC)cc3)Oc3ccccc3[C@@H]12 (relative stereo) was tested, and the MIC [1] was greater than 12.5 µg/mL and the MIC [2] was greater than 12.5 µg/mL.
Work on CC1(C)CCc2cc(C(C#Cc3ccccc3)N3CCOCC3)ccc2O1 (stereo unspecified) yielded an MIC [1] of 12.5 µg/mL (≈ 34.6 µM) and an MIC [2] greater than 12.5 µg/mL.
Work on NNC(=O)c1ccncc1 [ISONIAZID] yielded an MIC [1] of 0.75 µg/mL (≈ 5.47 µM).
CCOC(=O)[C@H]1N[C@@H](c2ccccc2)[C@@H]([N+](=O)[O-])[C@@H]1c1ccc2c(c1)CCC(C)(C)O2 (relative stereo) gave an MIC [1] of 12.5 µg/mL (≈ 29.4 µM) and an MIC [2] greater than 12.5 µg/mL.
In the case of CC[C@@H](CO)NCCN[C@@H](CC)CO [ETHAMBUTOL], the MIC [1] was 3.25 µg/mL (≈ 15.9 µM).

Source: ChEMBL document CHEMBL3044735, “Search of antimycobacterial activities in hybrid molecules with benzopyran skeleton” (2011)
